According to paper PMC7278228, “Chemical space exploration based on recurrent neural networks: applications in discovering kinase inhibitors” (Journal of Cheminformatics, 2020):

Key:
Type in all cases: biochemical
[1] = target: T1, CDK4 (Homo sapiens, UniProt P11802); assay: mobility shift kinase assay ([…] CDK4, […] ATP, FAM-P8)
[2] = target: Pim1 (Homo sapiens, UniProt P11309); assay: mobility shift kinase assay ([…] Pim1, […] ATP, FAM-P20)
[3] = target: T1, CDK4; assay: mobility shift kinase assay, % inhibition at […]
[4] = target: T1, CDK4; assay: mobility shift kinase assay, % inhibition at […]; remark: listed apart in the source

T1 sequence (P11802 2-303): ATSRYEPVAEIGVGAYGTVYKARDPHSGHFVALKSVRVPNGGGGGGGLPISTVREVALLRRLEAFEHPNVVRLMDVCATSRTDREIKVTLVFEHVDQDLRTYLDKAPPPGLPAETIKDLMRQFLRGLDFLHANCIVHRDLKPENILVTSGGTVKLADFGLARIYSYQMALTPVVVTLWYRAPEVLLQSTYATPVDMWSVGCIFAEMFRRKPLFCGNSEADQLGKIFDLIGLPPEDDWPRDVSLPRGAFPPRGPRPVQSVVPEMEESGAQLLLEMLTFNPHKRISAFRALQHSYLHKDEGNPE
T1 sequence (P30281 whole entry partner): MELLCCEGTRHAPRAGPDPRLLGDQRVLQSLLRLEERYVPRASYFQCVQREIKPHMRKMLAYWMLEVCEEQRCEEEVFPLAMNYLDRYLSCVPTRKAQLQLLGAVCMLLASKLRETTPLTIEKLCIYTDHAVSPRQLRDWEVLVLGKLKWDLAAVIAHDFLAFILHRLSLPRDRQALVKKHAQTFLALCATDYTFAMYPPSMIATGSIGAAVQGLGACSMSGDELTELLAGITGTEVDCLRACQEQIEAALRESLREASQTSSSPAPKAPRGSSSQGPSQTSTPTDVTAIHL
Sequence of Pim1 (P11309 whole entry): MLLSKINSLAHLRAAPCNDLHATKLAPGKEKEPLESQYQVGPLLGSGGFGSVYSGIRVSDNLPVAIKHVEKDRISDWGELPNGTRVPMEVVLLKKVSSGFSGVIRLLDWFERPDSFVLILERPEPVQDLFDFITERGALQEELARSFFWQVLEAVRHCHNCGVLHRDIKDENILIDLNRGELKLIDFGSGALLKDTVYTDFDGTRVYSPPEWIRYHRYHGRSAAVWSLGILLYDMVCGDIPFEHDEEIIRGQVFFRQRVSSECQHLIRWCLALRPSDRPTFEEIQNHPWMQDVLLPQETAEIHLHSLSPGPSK

Oc1ccc(-c2ccc3nnc(-c4ccc5cccc(OC6CCNCC6)c5n4)n3c2)cc1 [MJ-1055]
IC50 [1]: 25.3 µM
IC50 [2]: 0.0096 µM

CC(C)n1cc(C(N)=O)c2cnc(Nc3ccc(N4CCNCC4)cc3)nc21 [MJ-115]
Inhibition for CDK4 at 100 μM (%) [3]: 90.74 ± 1.28

O=C1N=c2ccccc2=C1c1s/c(=N\N=C2\C(=O)Nc3ccccc32)n(-c2ccc(O)cc2)c1O [AF-399/37285031]
% inhibition at 10 μM [4]: 57.8 ± 5.0
